Source: PubChem BioAssay (NCI)
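Five concentrations, 48 hours, 96-well plates. TGI: concentration producing complete growth inhibition.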

Experiments:
Test in all cases: inhibition of tumour cell growth, NCI panel, 48 h
HCC-2998 colon = system: HCC-2998 colon
RXF 393 renal = system: RXF 393 renal
SK-MEL-28 melanoma = system: SK-MEL-28 melanoma
ACHN renal = system: ACHN renal
T-47D breast = system: T-47D breast
SF-539 CNS = system: SF-539 CNS
SR leukemia = system: SR leukemia
RPMI-8226 leukemia = system: RPMI-8226 leukemia
A549 NSCLC = system: A549 NSCLC
SW-620 colon = system: SW-620 colon
UACC-62 melanoma = system: UACC-62 melanoma
NCI-H460 lung = system: NCI-H460 lung
SNB-19 CNS = system: SNB-19 CNS
UO-31 renal = system: UO-31 renal
HOP-62 NSCLC = system: HOP-62 NSCLC
SK-OV-3 ovarian = system: SK-OV-3 ovarian
DU-145 prostate = system: DU-145 prostate
HCT-15 colon = system: HCT-15 colon
OVCAR-5 ovarian = system: OVCAR-5 ovarian
OVCAR-3 ovarian = system: OVCAR-3 ovarian
MDA-N = system: MDA-N
U251 CNS = system: U251 CNS
HOP-92 NSCLC = system: HOP-92 NSCLC
786-0 renal = system: 786-0 renal
EKVX NSCLC = system: EKVX NSCLC
NCI/ADR-RES ovarian = system: NCI/ADR-RES ovarian
CCRF-CEM leukemia = system: CCRF-CEM leukemia
NCI-H23 lung = system: NCI-H23 lung
K-562 leukemia = system: K-562 leukemia
OVCAR-8 ovarian = system: OVCAR-8 ovarian
BT-549 breast = system: BT-549 breast
SF-295 CNS = system: SF-295 CNS
SN12C renal = system: SN12C renal
UACC-257 melanoma = system: UACC-257 melanoma
M14 melanoma = system: M14 melanoma
HS 578T breast = system: HS 578T breast
MOLT-4 leukemia = system: MOLT-4 leukemia
MDA-MB-435 = system: MDA-MB-435
OVCAR-4 ovarian = system: OVCAR-4 ovarian
HCT-116 colon = system: HCT-116 colon
TK-10 renal = system: TK-10 renal
IGROV1 ovarian = system: IGROV1 ovarian
LOX IMVI melanoma = system: LOX IMVI melanoma
NCI-H522 lung = system: NCI-H522 lung
MDA-MB-231 breast = system: MDA-MB-231 breast
HT29 colon = system: HT29 colon
NCI-H226 lung = system: NCI-H226 lung
COLO 205 colon = system: COLO 205 colon
SF-268 CNS = system: SF-268 CNS
CAKI-1 renal = system: CAKI-1 renal
MCF7 breast = system: MCF7 breast
SNB-75 CNS = system: SNB-75 CNS
PC-3 prostate = system: PC-3 prostate
SK-MEL-5 melanoma = system: SK-MEL-5 melanoma
KM12 colon = system: KM12 colon
MALME-3M melanoma = system: MALME-3M melanoma
SK-MEL-2 melanoma = system: SK-MEL-2 melanoma
A498 renal = system: A498 renal

Compound: COC(=O)Cc1c(-c2[nH]c3ccccc3c2CC(=O)OC)[nH]c2ccccc12
- TGI (HCC-2998 colon): > 100 µM
- TGI (RXF 393 renal): > 100 µM
- TGI (SK-MEL-28 melanoma): > 100 µM
- TGI (ACHN renal): > 100 µM
- TGI (T-47D breast): > 100 µM
- TGI (SF-539 CNS): > 100 µM
- TGI (SR leukemia): > 100 µM
- TGI (RPMI-8226 leukemia): > 100 µM
- TGI (A549 NSCLC): > 100 µM
- TGI (SW-620 colon): > 100 µM
- TGI (UACC-62 melanoma): > 100 µM
- TGI (NCI-H460 lung): > 100 µM
- TGI (SNB-19 CNS): > 100 µM
- TGI (UO-31 renal): > 100 µM
- TGI (HOP-62 NSCLC): > 100 µM
- TGI (SK-OV-3 ovarian): > 100 µM
- TGI (DU-145 prostate): > 100 µM
- TGI (HCT-15 colon): > 100 µM
- TGI (OVCAR-5 ovarian): > 100 µM
- TGI (OVCAR-3 ovarian): > 41.2 µM
- TGI (MDA-N): > 100 µM
- TGI (U251 CNS): > 100 µM
- TGI (HOP-92 NSCLC): > 100 µM
- TGI (786-0 renal): > 100 µM
- TGI (EKVX NSCLC): > 100 µM
- TGI (NCI/ADR-RES ovarian): > 100 µM
- TGI (CCRF-CEM leukemia): > 100 µM
- TGI (NCI-H23 lung): > 100 µM
- TGI (K-562 leukemia): > 100 µM
- TGI (OVCAR-8 ovarian): > 100 µM
- TGI (BT-549 breast): > 100 µM
- TGI (SF-295 CNS): > 100 µM
- TGI (SN12C renal): > 100 µM
- TGI (UACC-257 melanoma): > 100 µM
- TGI (M14 melanoma): > 100 µM
- TGI (HS 578T breast): > 100 µM
- TGI (MOLT-4 leukemia): > 100 µM
- TGI (MDA-MB-435): > 100 µM
- TGI (OVCAR-4 ovarian): > 100 µM
- TGI (HCT-116 colon): > 100 µM
- TGI (TK-10 renal): > 100 µM
- TGI (IGROV1 ovarian): > 100 µM
- TGI (LOX IMVI melanoma): > 100 µM
- TGI (NCI-H522 lung): > 100 µM
- TGI (MDA-MB-231 breast): > 100 µM
- TGI (HT29 colon): > 100 µM
- TGI (NCI-H226 lung): > 100 µM
- TGI (COLO 205 colon): > 100 µM
- TGI (SF-268 CNS): > 100 µM
- TGI (CAKI-1 renal): > 100 µM
- TGI (MCF7 breast): > 100 µM
- TGI (SNB-75 CNS): > 100 µM
- TGI (PC-3 prostate): > 100 µM
- TGI (SK-MEL-5 melanoma): > 100 µM
- TGI (KM12 colon): > 100 µM
- TGI (MALME-3M melanoma): > 100 µM
- TGI (SK-MEL-2 melanoma): > 100 µM
- TGI (A498 renal): > 100 µM
